Test results from US12209081B2 (Katholieke Universiteit Leuven, priority 2020, dated 2025).
Where a name gives a salt, the structure may show the parent alone.

Tested on: TRPM3
Assay: not given
Conditions: rat pain model; Chen L et al. 2014; cited from earlier work

Compound	mechanical and cold hyperalgesia
O=C1C[C@@H](c2ccc(O)cc2)Oc2cc(O)ccc21 [Liquiritigenin]	decrease mechanical and cold hyperalgesia

Target: mouse TRPM3α2 (mTRPM3) ion channel (Mus musculus (Mouse), UniProt J9SQF3)
Assay: TRPM3 ion channel driven Ca2+ uptake, Fluo-4 AM assay, mTRPM3alpha2 overexpressing flip-in HEK293 cells stimulated with pregnenolone sulfate
Assay type: cell-based
Conditions: PS 50 μM, cpds 200-299
Procedure, shortened: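 Flip-in HEK293 cells loaded with Fluo-4 AM were added to plates holding compound plus 50 μM pregnenolone sulfate in Ca2+-containing Krebs buffer. Fluorescence (ex 485/em 535 nm) read directly after cell addition; % inhibition relative to PS-stimulated vehicle and positive-control inhibitor.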

Chain of mouse TRPM3α2 (mTRPM3) ion channel (J9SQF3 other isoform, or with tags, fused parts or gaps): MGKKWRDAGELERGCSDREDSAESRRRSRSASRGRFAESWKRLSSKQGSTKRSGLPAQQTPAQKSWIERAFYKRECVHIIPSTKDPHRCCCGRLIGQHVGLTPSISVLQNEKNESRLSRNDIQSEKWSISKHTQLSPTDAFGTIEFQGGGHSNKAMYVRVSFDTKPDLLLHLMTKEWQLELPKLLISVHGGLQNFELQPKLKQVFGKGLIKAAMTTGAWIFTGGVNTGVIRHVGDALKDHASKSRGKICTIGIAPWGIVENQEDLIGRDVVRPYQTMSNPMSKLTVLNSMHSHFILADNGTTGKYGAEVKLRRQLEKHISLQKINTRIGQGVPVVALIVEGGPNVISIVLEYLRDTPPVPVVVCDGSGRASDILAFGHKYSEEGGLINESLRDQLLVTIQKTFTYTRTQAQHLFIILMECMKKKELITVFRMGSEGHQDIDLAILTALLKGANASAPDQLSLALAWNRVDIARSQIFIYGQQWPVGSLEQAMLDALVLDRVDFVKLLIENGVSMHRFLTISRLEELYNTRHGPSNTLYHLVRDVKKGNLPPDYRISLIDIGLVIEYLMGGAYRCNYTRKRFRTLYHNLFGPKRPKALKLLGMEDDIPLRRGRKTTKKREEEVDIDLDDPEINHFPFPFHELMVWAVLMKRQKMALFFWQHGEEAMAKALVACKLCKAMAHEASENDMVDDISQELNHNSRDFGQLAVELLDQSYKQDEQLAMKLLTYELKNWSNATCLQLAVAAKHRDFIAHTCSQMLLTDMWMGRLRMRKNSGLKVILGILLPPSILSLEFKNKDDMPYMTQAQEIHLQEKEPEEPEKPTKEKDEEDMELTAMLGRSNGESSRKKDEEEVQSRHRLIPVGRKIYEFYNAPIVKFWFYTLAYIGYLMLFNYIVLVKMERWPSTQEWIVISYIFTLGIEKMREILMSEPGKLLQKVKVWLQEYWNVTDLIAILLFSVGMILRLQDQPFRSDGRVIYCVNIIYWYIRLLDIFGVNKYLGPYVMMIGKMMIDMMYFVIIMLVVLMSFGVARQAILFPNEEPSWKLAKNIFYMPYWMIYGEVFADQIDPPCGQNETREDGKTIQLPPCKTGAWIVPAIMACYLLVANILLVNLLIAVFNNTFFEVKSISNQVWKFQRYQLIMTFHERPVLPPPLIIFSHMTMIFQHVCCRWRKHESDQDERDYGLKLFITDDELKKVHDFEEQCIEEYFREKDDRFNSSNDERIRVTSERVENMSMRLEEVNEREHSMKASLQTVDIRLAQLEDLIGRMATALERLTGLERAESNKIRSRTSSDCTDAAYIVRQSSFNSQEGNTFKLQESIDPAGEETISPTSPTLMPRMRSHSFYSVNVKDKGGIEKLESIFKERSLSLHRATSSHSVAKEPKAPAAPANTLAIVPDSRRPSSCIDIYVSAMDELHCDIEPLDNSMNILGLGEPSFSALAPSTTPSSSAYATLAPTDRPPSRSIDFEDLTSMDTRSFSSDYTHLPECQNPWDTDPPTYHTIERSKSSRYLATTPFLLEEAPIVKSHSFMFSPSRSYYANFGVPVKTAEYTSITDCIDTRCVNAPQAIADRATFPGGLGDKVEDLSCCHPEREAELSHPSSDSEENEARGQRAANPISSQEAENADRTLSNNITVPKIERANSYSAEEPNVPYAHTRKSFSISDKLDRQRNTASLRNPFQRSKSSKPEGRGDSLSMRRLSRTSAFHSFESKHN

Compound	IC50
Cc1oc2ccc(OCC3COC3)cc2c1C(=O)N[C@@H](CO)C(N)=O [compound 292, (S)-N-(1-amino-3-hydroxy-1-oxopropan-2-yl)-2-methyl-5-(oxetan-3-ylmethoxy)benzofuran-3-carboxamide]	< 1 µM

Same assay, conditions: PS 50 μM, cpds 300-399

Compound	IC50
Cc1ncsc1COc1ccc2oc(C(F)F)c(C(=O)NC3CCNCC3(F)F)c2c1 (single isomer, unassigned) [cpd 310-En 2]	< 1 µM
Cc1nc(C)c(COc2ccc3oc(C)c(C(=O)NC4(CO)CCOCC4)c3c2)s1 [compound 345, 5-((2,4-dimethylthiazol-5-yl)methoxy)-N-(4-(hydroxymethyl)tetrahydro-2H-pyran-4-yl)-2-methylbenzofuran-3-carboxamide]	< 1 µM
Cc1ncc(COc2ccc3oc(C)c(C(=O)NCC4(F)CCOCC4)c3c2)s1 [compound 393, N-((4-fluorotetrahydro-2H-pyran-4-yl)methyl)-2-methyl-5-((2-methylthiazol-5-yl)methoxy)benzofuran-3-carboxamide]	< 1 µM
Cc1ncccc1COc1ccc2oc(C)c(C(=O)N[C@H](C(N)=O)[C@@H](C)O)c2c1 [compound 376, N-((2S,3R)-1-amino-3-hydroxy-1-oxobutan-2-yl)-2-methyl-5-((2-methylpyridin-3-yl)methoxy)benzofuran-3-carboxamide]	< 1 µM
Cc1ncc(COc2ccc3oc(C)c(C(=O)N[C@H](C(N)=O)[C@@H](C)O)c3c2)o1 [compound 375, N-((2S,3R)-1-amino-3-hydroxy-1-oxobutan-2-yl)-2-methyl-5-((2-methyloxazol-5-yl)methoxy)benzofuran-3-carboxamide]	< 1 µM
O=C(NC1(CO)CCOCC1)c1c(C(F)F)oc2ccc(OCc3cccnc3O)cc12 [compound 311, 2-(difluoromethyl)-N-(4-(hydroxymethyl)tetrahydro-2H-pyran-4-yl)-5-((2-oxo-1,2-dihydropyridin-3-yl)methoxy)benzofuran-3-carboxamide]	< 1 µM
Cc1oc2ccc(OCc3cccnc3N)cc2c1C(=O)NC1(CO)CCOCC1 [compound 346, 5-((2-aminopyridin-3-yl)methoxy)-N-(4-(hydroxymethyl)tetrahydro-2H-pyran-4-yl)-2-methylbenzofuran-3-carboxamide]	< 1 µM
Cc1ncsc1COc1ccc2oc(C)c(C(=O)NC(C)(C)C(=O)NCCO)c2c1 [compound 398, N-(1-((2-hydroxyethyl)amino)-2-methyl-1-oxopropan-2-yl)-2-methyl-5-((4-methylthiazol-5-yl)methoxy)benzofuran-3-carboxamide]	< 1 µM

Same assay, conditions: PS (50 μM) stimulated, cpd 001-199

Compound	IC50
Cc1oc2ccc(OCc3cccnc3C(F)(F)F)cc2c1C(=O)NC1CCN(CC(F)(F)F)CC1 [compound 168, 2-methyl-N-(1-(2,2,2-trifluoroethyl)piperidin-4-yl)-5-((2-(trifluoromethyl)pyridin-3-yl)methoxy) -benzofuran-3-carboxamide]	< 1 µM
Cc1noc(C)c1COc1ccc2oc(C)c(C(=O)O)c2c1 [compound 016, 5-((3,5-dimethylisoxazol-4-yl)methoxy)-2-methylbenzofuran-3-carboxylic acid]	> 20 µM
Cc1oc2ccc(OCc3cccnc3C(F)(F)F)cc2c1C(=O)NC1(CO)CCC1 [compound 117, N-(1-(hydroxymethyl)cyclobutyl)-2-methyl-5-((2-(trifluoromethyl)pyridin-3-yl)methoxy)benzofuran-3-carboxamide]	< 1 µM

Same assay, conditions: PS (50 μM) stimulated, cpds. 400-499

Compound	IC50
COc1ncccc1COc1ccc2oc(C)c(C(=O)NC(C)(CO)CO)c2c1 [compound 431, N-(1,3-dihydroxy-2-methylpropan-2-yl)-5-((2-methoxypyridin-3-yl)methoxy)-2-methylbenzofuran-3-carboxamide]	< 1 µM

Same assay, conditions: PS (50 μM) stimulated, cpds. 500-599

Compound	IC50
Cc1oc2ccc(OCc3ncccn3)cc2c1C(=O)NC1CCNCC1(F)F (single isomer, unassigned) [cpd 559-En 2]	> 20 µM
Cc1oc2ccc(OCc3cnnn3C)cc2c1C(=O)NC1CCNCC1(F)F (single isomer, unassigned) [cpd 541-En 1]	1 to 20 µM
Cc1ccc(COc2ccc3oc(C)c(C(=O)NC4CCNCC4(F)F)c3c2)nn1 (single isomer, unassigned) [cpd 556-En 2]	> 20 µM
Cc1ncc(COc2ccc3oc(C)c(C(=O)NC4(CO)CCOC4)c3c2)s1 (single isomer, unassigned) [cpd 533-En 1]	< 1 µM
Cc1oc2ccc(OCc3ccccn3)cc2c1C(=O)NC1(C(N)=O)COC1 [compound 581, N-(3-carbamoyloxetan-3-yl)-2-methyl-5-(pyridin-2-ylmethoxy)benzofuran-3-carboxamide]	< 1 µM
Cc1ncc(COc2ccc3oc(C)c(C(=O)NC4CCNCC4(F)F)c3c2)s1 (single isomer, unassigned) [cpd 549-En 1]	< 1 µM
Cc1cnc(COc2ccc3oc(C)c(C(=O)NC4CCNCC4(F)F)c3c2)s1 (single isomer, unassigned) [cpd 555-En 1]	< 1 µM
Cc1ncsc1COc1ccc2oc(C)c(C(=O)NCC(C)(C)C(N)=O)c2c1 [compound 576, N-(3-amino-2,2-dimethyl-3-oxopropyl)-2-methyl-5-((4-methylthiazol-5-yl)methoxy)benzofuran-3-carboxamide]	< 1 µM

Same assay, conditions: PS (50 μM) stimulated, cpds. 608-666

Compound	IC50
Cc1ncsc1COc1ccc2oc(C)c(C(=O)NC(C)(C)CC(N)=O)c2c1 [compound 649, N-(4-amino-2-methyl-4-oxobutan-2-yl)-2-methyl-5-((4-methylthiazol-5-yl)methoxy)benzofuran-3-carboxamide]	< 1 µM
Cc1ncsc1C(C)Oc1ccc2oc(C)c(C(=O)NC3(CO)CCOCC3)c2c1 (centres unmarked) [cpd 623-En 1]	< 1 µM
Cc1ncsc1COc1ccc2oc(C)c(C(=O)NC3CCCCNC3=O)c2c1 (single isomer, unassigned) [cpd 661-En 1]	< 1 µM

Same assay, conditions: PS (50 μM) stimulated, cpds. 667-751

Compound	IC50
Cc1oc2ccc(OCc3cnccn3)cc2c1C(=O)N[C@@H](CO)C(N)=O [compound 714, (S)-N-(1-Amino-3-hydroxy-1-oxopropan-2-yl)-2-methyl-5-(pyrazin-2-ylmethoxy)benzofuran-3-carboxamide]	< 1 µM
Cc1ccc(COc2ccc3oc(C(F)F)c(C(=O)N[C@@H](CO)C(N)=O)c3c2)cn1 [compound 743, (S)-N-(1-Amino-3-hydroxy-1-oxopropan-2-yl)-2-(difluoromethyl)-5-((6-methylpyridin-3-yl)methoxy)benzofuran-3-carboxamide]	< 1 µM
Cc1oc2ccc(OCc3ccc(F)cn3)cc2c1C(=O)NC(C)(CO)C(N)=O (single isomer, unassigned) [cpd 739-En 1]	< 1 µM
Cc1ncc(COc2ccc3oc(C4CC4)c(C(=O)N[C@@H](CO)C(N)=O)c3c2)s1 [compound 749, (S)-N-(1-Amino-3-hydroxy-1-oxopropan-2-yl)-2-cyclopropyl-5-((2-methylthiazol-5-yl)methoxy)benzofuran-3-carboxamide]	< 1 µM
Cc1oc2ccc(OCc3ccncc3)cc2c1C(=O)N[C@@H](CO)C(N)=O [compound 716, (S)-N-(1-Amino-3-hydroxy-1-oxopropan-2-yl)-2-methyl-5-(pyridin-4-ylmethoxy)benzofuran-3-carboxamide]	< 1 µM

Target: TRPM3 (Homo sapiens (Human), UniProt Q9HCF6)
Assay: not given
Conditions: Wagner et al., 2008; cited from earlier work

Chain of TRPM3 (Homo sapiens (Human), UniProt Q9HCF6) (Q9HCF6 whole entry, species assumed): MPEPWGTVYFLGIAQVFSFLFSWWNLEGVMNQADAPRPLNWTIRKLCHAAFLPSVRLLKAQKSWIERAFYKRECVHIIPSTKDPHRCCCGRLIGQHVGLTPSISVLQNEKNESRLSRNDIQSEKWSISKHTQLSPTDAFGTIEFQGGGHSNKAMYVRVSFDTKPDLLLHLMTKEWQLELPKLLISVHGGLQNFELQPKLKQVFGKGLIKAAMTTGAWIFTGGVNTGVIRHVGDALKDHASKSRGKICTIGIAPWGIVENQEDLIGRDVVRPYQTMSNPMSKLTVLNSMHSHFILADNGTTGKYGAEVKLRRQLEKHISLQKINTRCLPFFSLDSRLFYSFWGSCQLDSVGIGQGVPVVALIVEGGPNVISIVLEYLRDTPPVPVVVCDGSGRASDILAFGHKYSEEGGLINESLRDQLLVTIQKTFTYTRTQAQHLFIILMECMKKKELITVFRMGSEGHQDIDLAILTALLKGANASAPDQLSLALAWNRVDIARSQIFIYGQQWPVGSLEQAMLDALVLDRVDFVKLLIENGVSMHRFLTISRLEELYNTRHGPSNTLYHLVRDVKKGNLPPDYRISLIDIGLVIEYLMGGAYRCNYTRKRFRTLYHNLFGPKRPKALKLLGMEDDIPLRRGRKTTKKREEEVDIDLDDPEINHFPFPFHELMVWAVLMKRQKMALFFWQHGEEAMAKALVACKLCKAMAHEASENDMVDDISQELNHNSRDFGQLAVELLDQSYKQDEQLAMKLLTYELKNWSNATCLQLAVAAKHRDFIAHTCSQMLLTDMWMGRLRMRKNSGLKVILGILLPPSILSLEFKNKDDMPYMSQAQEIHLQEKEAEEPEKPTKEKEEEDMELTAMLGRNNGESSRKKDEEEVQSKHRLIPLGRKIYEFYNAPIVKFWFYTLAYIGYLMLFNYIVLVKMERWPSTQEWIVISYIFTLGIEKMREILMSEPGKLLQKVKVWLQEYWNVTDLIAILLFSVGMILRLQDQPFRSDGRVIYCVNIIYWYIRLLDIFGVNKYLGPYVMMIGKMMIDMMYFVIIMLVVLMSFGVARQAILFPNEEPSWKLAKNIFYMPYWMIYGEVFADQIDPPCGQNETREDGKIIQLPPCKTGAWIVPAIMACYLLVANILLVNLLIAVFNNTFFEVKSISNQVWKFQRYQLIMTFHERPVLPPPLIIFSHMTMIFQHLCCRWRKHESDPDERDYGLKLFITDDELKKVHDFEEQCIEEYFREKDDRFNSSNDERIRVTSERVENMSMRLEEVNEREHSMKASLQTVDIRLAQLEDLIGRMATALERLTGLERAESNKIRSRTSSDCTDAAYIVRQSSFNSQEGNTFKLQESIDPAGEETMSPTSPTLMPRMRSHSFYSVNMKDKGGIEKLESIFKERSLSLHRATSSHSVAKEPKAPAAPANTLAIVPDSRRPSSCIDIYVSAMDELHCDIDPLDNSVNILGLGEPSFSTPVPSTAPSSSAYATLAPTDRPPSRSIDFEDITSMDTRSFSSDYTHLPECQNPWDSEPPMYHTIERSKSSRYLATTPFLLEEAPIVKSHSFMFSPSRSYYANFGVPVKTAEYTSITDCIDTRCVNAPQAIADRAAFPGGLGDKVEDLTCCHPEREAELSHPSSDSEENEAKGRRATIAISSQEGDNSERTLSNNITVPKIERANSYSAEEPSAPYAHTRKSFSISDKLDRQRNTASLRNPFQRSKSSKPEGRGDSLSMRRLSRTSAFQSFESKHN

Compound	activator of TRPM3
CC(=O)C1CCC2C3CC=C4CC(OS(=O)(=O)O)CCC4(C)C3CCC12C (centres unmarked) [pregnenolone sulfate, Pregnenolone sulfate]	potent known activator of TRPM3

Tested on: TRPM3
Assay: not given
Conditions: wild type mice vs knock-out TRPM3 mice; cited from earlier work

Compound	evoked pain
CC(=O)C1CCC2C3CC=C4CC(OS(=O)(=O)O)CCC4(C)C3CCC12C (centres unmarked) [pregnenolone sulfate, Pregnenolone sulfate]	evoked pain in wild type mice but not in knock-out TRPM3 mice
